The target in one assay is human histamine H1-receptor (Homo sapiens (Human), UniProt P35367). The assay can be described thus: Affinity for histamine H1-receptor: 3H-pyrilamine binding to membranes of CHO cells transfected with the human H1 receptor. Conditions: comparative compounds from the state of the art; same protocol; read-out: IC50, affinity for human histamine H1-receptor for comparative compounds. The protocol:
Affinity for histamine H1-receptor was determined by binding studies to H1 receptors. The sample used is a suspension of membranes of CHO cells transfected with the human H1 receptor (5 mg/ml, PerkinElmer), stored at −80° C. until use. After thawing, the membranes were homogenized in assay buffer (50 mM Na/K phosphate) prepared in purified water and kept at room temperature (pH 7.4). The assay was performed in 96-well microplates. In each well, 25 μl of buffer and 25 μl of vehicle (total binding) or 10 μM pyrilamine (nonspecific binding) or the products to be tested was added. Subsequently, 200 μl of the membrane suspension was added to all wells and the microtiter plate was preincubated at 25° C. for 15 min. After this time, 25 μl of 3H-pyrilamine (1.5 nM) was added and the reaction was allowed to incubate for 60 min at 25° C. Then, free radioligand was quickly separated from bound radioligand by vacuum filtration (Multiscreen microplate Screener), performing 10 washes with assay buffer (4° C.). Subsequently 45 μl of scintillation fluid was added to each well and after sealing of the microplate, the radioactivity was quantified in a liquid scintillation counter (TopCount). The graphs of the inhibition curves and calculation the IC50 value were generated with the GraphPad Prism program.
Affinity for histamine H1-receptor of four compounds from the state of the art was determined by binding studies to H1 receptors using the same protocol as described above. The graphs of the inhibition curves and calculation the IC50 value were generated also with the GraphPad Prism program.
Sequence of human histamine H1-receptor (P35367 whole entry): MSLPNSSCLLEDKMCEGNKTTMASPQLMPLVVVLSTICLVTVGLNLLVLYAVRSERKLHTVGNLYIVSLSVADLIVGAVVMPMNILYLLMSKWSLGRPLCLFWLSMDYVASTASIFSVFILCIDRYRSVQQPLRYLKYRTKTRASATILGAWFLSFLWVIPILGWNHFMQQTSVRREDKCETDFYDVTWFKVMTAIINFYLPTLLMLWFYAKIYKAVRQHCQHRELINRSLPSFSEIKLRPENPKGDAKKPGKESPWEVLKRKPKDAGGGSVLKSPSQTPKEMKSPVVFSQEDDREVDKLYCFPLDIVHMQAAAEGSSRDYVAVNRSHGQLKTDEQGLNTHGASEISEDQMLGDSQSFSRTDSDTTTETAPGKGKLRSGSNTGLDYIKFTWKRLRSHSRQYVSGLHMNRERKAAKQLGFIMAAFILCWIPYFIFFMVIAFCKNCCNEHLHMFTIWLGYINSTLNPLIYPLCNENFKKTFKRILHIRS
Consider `O=C(O)Cc1ccc(OCCN2CCC(c3nc4ccccc4n3CCOc3ccccc3)CC2)cc1` [reference compound], for which the IC50 (as a rule, the concentration needed to halve the response being measured) turned out to be 0.271 µM.
On the same count and under the same terms, next, `CCOCCn1c(C2CCN(CCc3ccc(C(C)(C)C)cc3)CC2)nc2ccccc21` [reference compound]: 0.424 µM; `CCOCCn1c(C2CCN(CCOc3ccc(CC(=O)O)cc3)CC2)nc2ccccc21` [reference compound]: 1.99 µM.
Consider `O=C(O)c1ccc(OCCN2CCC(c3nc4ccccc4n3CCOc3ccccc3)CC2)cc1` [reference compound], for which the IC50 stood at 0.26 µM.

Staying with this assay, now noted: compounds of the invention; 3H-pyrilamine 1.5 nM, 60 min at 25° C., CHO cell membranes; read-out: IC50, affinity for human histamine H1-receptor.
Consider `CCOCCn1c(C2CCN(CCOC)CC2)nc2ccccc21`, for which the IC50 was determined as 0.093 µM.
Regarding `OCCN1CCC(c2nc3ccccc3n2Cc2ccccn2)CC1`, the half-inhibitory concentration (IC50) is 0.175 µM.
Still for that read-out and setting: next, `CCOCCOCCN1CCC(c2nc3ccccc3n2CCOCC)CC1`: 0.115 µM; `CCOCCn1c(C2CCN(CCOC(C)=O)CC2)nc2ccccc21`: 0.054 µM; `CCOCCn1c(C2CCN(CCOCC(=O)OCC)CC2)nc2ccccc21`: 0.169 µM.
The same measure, in the same setting: next, `COC(=O)COCCN1CCC(c2nc3ccccc3n2CCOc2ccccc2)CC1` [drawing 32]: 0.195 µM; `CCOCCn1c(C2CCN(CCCO)CC2)nc2ccccc21`: 0.028 µM.
For the compound `CCOCCn1c(C2CCN(CCO)CC2)nc2ccccc21`, the IC50 amounted to 0.025 µM.

For a further assay, the system named is histamine papules. The assay can be described thus: Antihistaminic activity: histamine papules in rats (Evans blue extraction). Format: in vivo. Conditions: 20 mg/kg oral gavage, intradermal histamine one hour after administration. Here is the method:
Antihistaminic activity: histamine papules [Mota I., Life Sci., 1963, 12, 917-927; Lefebvre P. et al., C. R. Soc. Biol., 1962, 156, 183-186; and Udaka K. et al., Proc Soc Exp Biol Med, 1970, 133, 1384-1387]
Rats, males and/or females (110-160 g) were used, kept under the usual conditions of temperature and humidity. Previous day, backs of the animals were shaved and since that time (16-24 h) animals were subjected to solid fast but supplied ad libitum with an aqueous solution of sucrose (8%) and sodium chloride (0.2%). The compounds to be tested were dissolved in tartaric acid (Probus 015420) 0.1 M at a concentration of 5 mg/ml and then diluted with water until the concentration to be tested. This suspension or solution of the compound to be tested was administered by rigid oral gavage at 10 mL/kg. The control group received by the same administration mode a solution of tartaric acid (Probus 015420) 0.1 M in water. One hour after oral administration (products, patterns or vehicle), and under light ether anesthesia, two bumps were made on the shaved back by intradermal injection of Histamine hydrochloride (Sigma H-7250) dissolved in sterile saline (10 mg/0.1 mL/papule). Immediately after, dye injection of Evans blue (Merck No. 3169) dissolved in sterile saline (25 mg/kg/4 mL) was administered intravenously. […] The concentration of extracted Evans blue was determined by microplate reader.
Regarding `COC(=O)COCCN1CCC(c2nc3ccccc3n2CCOc2ccccc2)CC1` [drawing 37], the “% inhibition, histamine papules” value was determined as 45.03%.

For the origin of these results see US10106522B2, “Benzimidazole derivatives as antihistamine agents” (Faes Farma, S.A., priority 2014, dated 2018).
